For the series the following is noted: Liquid.

Numbers after ± are expanded uncertainties.

As to `F[C@H]([C@H](F)C(F)(F)F)C(F)(F)C(F)(F)F` (relative stereo) [(R*,S*)-1,1,1,2,2,3,4,5,5,5-decafluoropentane], the vapor or sublimation pressure (as a rule, the equilibrium pressure above the liquid or solid) runs as follows: (293.17 K) 34.49 ± 0.1 kPa; (302.95 K) 52.41 ± 0.11 kPa; (309.84 K) 68.93 ± 0.13 kPa; (313.03 K) 77.9 ± 0.15 kPa; (319.81 K) 99.95 ± 0.17 kPa.
For the compound `C1CCOC1` [tetrahydrofuran], the “vapor or sublimation pressure” value runs as follows: (303.04 K) 26.67 ± 0.08 kPa; (303.05 K) 26.68 ± 0.08 kPa; (305.11 K) 29.09 ± 0.08 kPa; (309.28 K) 34.5 ± 0.09 kPa; (313.11 K) 40.15 ± 0.09 kPa; (316.36 K) 45.51 ± 0.1 kPa. Besides, the “vapor or sublimation pressure” value (318.1 K) stood at 48.62 ± 0.1 kPa.
For `F[C@H]([C@@H](F)C(F)(F)C(F)(F)F)C(F)(F)F` (relative stereo) [(R*,R*)-1,1,1,2,2,3,4,5,5,5-decafluoropentane], the “vapor or sublimation pressure” value (295.82 K) came to 26.69 ± 0.08 kPa; the “vapor or sublimation pressure” value (303.17 K) is reported as 37.25 ± 0.09 kPa; the “vapor or sublimation pressure” value (305.11 K) is recorded as 40.56 ± 0.09 kPa; the “vapor or sublimation pressure” value (313.05 K) was determined as 56.54 ± 0.11 kPa; the “vapor or sublimation pressure” value (318.04 K) is listed as 68.94 ± 0.12 kPa; the “vapor or sublimation pressure” value (323.24 K) was 84.1 ± 0.13 kPa. Where the note is “327.95 K”, the “vapor or sublimation pressure” value worked out at 99.96 ± 0.14 kPa.
